In article PMC6405326 (ACS chemical neuroscience, 2018):

Tests used:
mouse KOR = mouse KOR (Mus musculus, UniProt P33534); experiment: Competitive radioligand binding assay, KOR
mouse MOR [1] = target: T1, mouse MOR (Mus musculus, UniProt P42866); experiment: Competitive radioligand binding assay, MOR
[2] = test system: KOR-DOR and KOR-MOR heterodimers; details: HEK293 cells; cited from earlier work
male Swiss Webster mice [3] = experiment: Warm-water tail immersion assay, antinociceptive effect; details: 10 mg/kg s.c., tested 20 min after injection, 56 °C water
mouse MOR [4] = target: T1, mouse MOR; experiment: [35S]-GTPγS functional assay, MOR-CHO membranes; details: for Emax: read-out: MOR [35S]-GTPγS assay % Emax of DAMGO, relative to 3 μM DAMGO; for MOR [35S]-GTPγS assay % Emax of DAMGO: relative to 3 μM DAMGO
mouse DOR = mouse DOR (Mus musculus, UniProt P32300); experiment: Competitive radioligand binding assay, DOR
[5] = cited from earlier work
male Swiss Webster mice [6] = experiment: Warm-water tail immersion assay, antagonism of morphine's antinociceptive effect; details: dose-response study, s.c.

Structure (SMILES)	Ki (mouse KOR) [nM]	Ki (mouse MOR [1]) [nM]	Activation of KOR-DOR and KOR-MOR heterodimers [2]	Antinociceptive effect (% MPE) (male Swiss Webster mice [3]; listed as INTA)	EC50 (mouse MOR [4]) [nM]	MOR [35S]-GTPγS assay EC50 (mouse MOR [4]; mMOR-CHO membranes)	Emax (mouse MOR [4]) [%]	MOR [35S]-GTPγS assay % Emax of DAMGO (mouse MOR [4])	Ki (mouse DOR) [nM]	Antinociception [5]	Aversive effects in the conditioned place preference assay [5]	Tolerance and dependence [5]	Antinociceptive effect (% MPE) (male Swiss Webster mice [3])	AD50 (95% CL), opioid antagonist effect against morphine (male Swiss Webster mice [6])
O=C(N[C@@H]1CC[C@@]2(O)[C@H]3Cc4ccc(O)c5c4[C@@]2(CCN3CC2CC2)[C@H]1O5)c1cc2ccccc2[nH]1 [Compound 1, 17-Cyclopropylmethyl-3,14β-dihydroxy-4,5α-epoxy-6β-(indole-2-carboxamido)morphinan]	0.18	0.29 ± 0.04	activated	potent antinociception	0.21 ± 0.01	subnanomolar potency	92.4 ± 2.81	full agonist	1.54 ± 0.47	potent antinociception	no aversive effects	devoid of tolerance and dependence	–	–
O=C(N[C@@H]1CC[C@@]2(O)[C@H]3Cc4ccc(O)c5c4[C@@]2(CCN3CC2CC2)[C@H]1O5)c1c[nH]c2ccccc12 [Compound 2, 17-Cyclopropylmethyl-3,14β-dihydroxy-4,5α-epoxy-6β-(indole-3-carboxamido)morphinan]	–	0.19 ± 0.02	–	–	0.22 ± 0.07	–	79.5 ± 7.41	high MOR efficacies	7.17 ± 1.23	–	–	–	low % MPE values	–
O=C(N[C@@H]1CC[C@@]2(O)[C@H]3Cc4ccc(O)c5c4[C@@]2(CCN3CC2CC2)[C@H]1O5)c1cccc2[nH]ccc12 [Compound 3, 17-Cyclopropylmethyl-3,14β-dihydroxy-4,5α-epoxy-6β-(indole-4-carboxamido)morphinan]	–	0.24 ± 0.03	–	–	8.16 ± 4.72	–	–	–	49.8 ± 12.7	–	–	–	–	–
O=C(N[C@@H]1CC[C@@]2(O)[C@H]3Cc4ccc(O)c5c4[C@@]2(CCN3CC2CC2)[C@H]1O5)c1ccc2[nH]ccc2c1 [Compound 4, 17-Cyclopropylmethyl-3,14β-dihydroxy-4,5α-epoxy-6β-(indole-5-carboxamido)morphinan]	0.51 ± 0.04	0.26 ± 0.04	–	–	2.98 ± 1.25	–	22.3 ± 3.5	–	17.7 ± 4.78	–	–	–	–	–
O=C(N[C@@H]1CC[C@@]2(O)[C@H]3Cc4ccc(O)c5c4[C@@]2(CCN3CC2CC2)[C@H]1O5)c1ccc2cc[nH]c2c1 [Compound 5, 17-Cyclopropylmethyl-3,14β-dihydroxy-4,5α-epoxy-6β-(indole-6-carboxamido)morphinan]	0.17 ± 0.01	0.25 ± 0.04	–	–	0.19 ± 0.02	–	71.8 ± 4.37	high MOR efficacies	6.23 ± 0.83	–	–	–	low % MPE values	–
O=C(N[C@@H]1CC[C@@]2(O)[C@H]3Cc4ccc(O)c5c4[C@@]2(CCN3CC2CC2)[C@H]1O5)c1cccc2cc[nH]c12 [Compound 6, 17-Cyclopropylmethyl-3,14β-dihydroxy-4,5α-epoxy-6β-(indole-7-carboxamido)morphinan]	0.52 ± 0.09	–	–	–	–	–	–	37.94 ±5.85%	30.4 ± 9.49	–	–	–	–	–
O=C(Cc1c[nH]c2ccccc12)N[C@@H]1CC[C@@]2(O)[C@H]3Cc4ccc(O)c5c4[C@@]2(CCN3CC2CC2)[C@H]1O5 [Compound 7, 17-Cyclopropylmethyl-3,14β-dihydroxy-4,5α-epoxy-6β-[2-(indol-3-yl)acetamido)morphinan]	–	0.24 ± 0.03	–	–	1.44 ± 0.75	–	48.3 ± 4.45	–	37 ± 1.21	–	–	–	–	–
O=C(CCc1c[nH]c2ccccc12)N[C@@H]1CC[C@@]2(O)[C@H]3Cc4ccc(O)c5c4[C@@]2(CCN3CC2CC2)[C@H]1O5 [Compound 8, 17-Cyclopropylmethyl-3,14β-dihydroxy-4,5α-epoxy-6β-[3-(indol-3-yl)propanamido)morphinan]	0.39 ± 0.05	0.17 ± 0.01	–	–	1.73 ± 1.1	–	45.1 ± 5.18	–	77.1 ± 28.3	–	–	–	–	–
O=C(CCCc1c[nH]c2ccccc12)N[C@@H]1CC[C@@]2(O)[C@H]3Cc4ccc(O)c5c4[C@@]2(CCN3CC2CC2)[C@H]1O5 [Compound 9, 17-Cyclopropylmethyl-3,14β-dihydroxy-4,5α-epoxy-6β-[4-(indol-3-yl)butanamido)morphinan]	–	0.2 ± 0.03	–	–	1.04 ± 0.17	–	–	36.29 ±4.11%	25.3 ± 4.34	–	–	–	–	–
O=C(N[C@H]1CC[C@@]2(O)[C@H]3Cc4ccc(O)c5c4[C@@]2(CCN3CC2CC2)[C@H]1O5)c1cc2ccccc2[nH]1 [Compound 10, 17-Cyclopropylmethyl-3,14β-dihydroxy-4,5α-epoxy-6α-(indole-2-carboxamido)morphinan]	0.93 ± 0.13	0.36 ± 0.03	–	–	6.75 ± 3.2	–	36.9 ± 2.4	–	14.2 ± 2.78	–	–	–	–	–
O=C(N[C@H]1CC[C@@]2(O)[C@H]3Cc4ccc(O)c5c4[C@@]2(CCN3CC2CC2)[C@H]1O5)c1c[nH]c2ccccc12 [Compound 11, 17-Cyclopropylmethyl-3,14β-dihydroxy-4,5α-epoxy-6α-(indole-3-carboxamido)morphinan]	0.98 ± 0.13	0.29 ± 0.04	–	–	1 ± 0.13	–	33.3 ± 3.51	–	10.5 ± 2.89	–	–	–	–	–
O=C(N[C@H]1CC[C@@]2(O)[C@H]3Cc4ccc(O)c5c4[C@@]2(CCN3CC2CC2)[C@H]1O5)c1cccc2[nH]ccc12 [Compound 12, 17-Cyclopropylmethyl-3,14β-dihydroxy-4,5α-epoxy-6α-(indole-4-carboxamido)morphinan]	–	0.26 ± 0.04	–	–	4.99 ± 2.19	–	–	28.90 ±0.95%	9.26 ± 2.83	–	–	–	–	–
O=C(N[C@H]1CC[C@@]2(O)[C@H]3Cc4ccc(O)c5c4[C@@]2(CCN3CC2CC2)[C@H]1O5)c1ccc2[nH]ccc2c1 [Compound 13, 17-Cyclopropylmethyl-3,14β-dihydroxy-4,5α-epoxy-6α-(indole-5-carboxamido)morphinan]	3.45 ± 0.99	0.76 ± 0.11	–	–	1.55 ± 0.08	–	32.2 ± 1.26	–	26.7 ± 7.72	–	–	–	–	–
O=C(N[C@H]1CC[C@@]2(O)[C@H]3Cc4ccc(O)c5c4[C@@]2(CCN3CC2CC2)[C@H]1O5)c1ccc2cc[nH]c2c1 [Compound 14, 17-Cyclopropylmethyl-3,14β-dihydroxy-4,5α-epoxy-6α-(indole-6-carboxamido)morphinan]	1.63 ± 0.28	0.43 ± 0.05	–	–	6.06 ± 1.25	–	26.6 ± 0.66	–	12.8 ± 3.36	–	–	–	–	–
O=C(N[C@H]1CC[C@@]2(O)[C@H]3Cc4ccc(O)c5c4[C@@]2(CCN3CC2CC2)[C@H]1O5)c1cccc2cc[nH]c12 [Compound 15, 17-Cyclopropylmethyl-3,14β-dihydroxy-4,5α-epoxy-6α-(indole-7-carboxamido)morphinan]	–	–	–	–	–	–	–	–	–	–	–	–	–	2.07 (0.40−10.74) mg/kg
O=C(Cc1c[nH]c2ccccc12)N[C@H]1CC[C@@]2(O)[C@H]3Cc4ccc(O)c5c4[C@@]2(CCN3CC2CC2)[C@H]1O5 [Compound 16, 17-Cyclopropylmethyl-3,14β-dihydroxy-4,5α-epoxy-6α-[2-(indol-3-yl)acetamido)morphinan]	3.14 ± 0.45	0.84 ± 0.12	–	–	4.75 ± 0.31	–	34.1 ± 0.97	–	9.17 ± 2.67	–	–	–	–	–
O=C(CCc1c[nH]c2ccccc12)N[C@H]1CC[C@@]2(O)[C@H]3Cc4ccc(O)c5c4[C@@]2(CCN3CC2CC2)[C@H]1O5 [Compound 17, 17-Cyclopropylmethyl-3,14β-dihydroxy-4,5α-epoxy-6α-[3-(indol-3-yl)propanamido)morphinan]	1.36 ± 0.18	0.44 ± 0.04	–	–	2.09 ± 0.19	–	41.5 ± 6.14	–	25.1 ± 6.83	–	–	–	–	–
O=C(CCCc1c[nH]c2ccccc12)N[C@H]1CC[C@@]2(O)[C@H]3Cc4ccc(O)c5c4[C@@]2(CCN3CC2CC2)[C@H]1O5 [Compound 18, 17-Cyclopropylmethyl-3,14β-dihydroxy-4,5α-epoxy-6α-[4-(indol-3-yl)butanamido)morphinan]	0.15 ± 0.03	0.29 ± 0.04	–	–	1.89 ± 1.04	–	54.9 ± 6.35	–	6.73 ± 0.4	–	–	–	–	–
